Test results reported in patent publication US20090068290A1, “BIFEPRUNOX DOSES FOR TREATING SCHIZOPHRENIA” (priority 2006, published 2009).

Tests used:
[1] = system: CYP2C9, CYP3A4, CYP2D6; assay: Metabolism and drug interactions of bifeprunox; settings: in vivo
Excerpt: The objective of this study is to assess the pharmacokinetics (PK) of bifeprunox. The PK of bifeprunox in healthy subjects were investigated based on a pooled analysis of PK parameters from 21 clinical pharmacology studies. The pooled analysis included PK profiles after single and multiple doses to 132 and 399 subjects, respectively, and explored the potential effects of age, gender, body weight, and race. In addition, PK in patients with schizophrenia were investigated using a population PK approach based on samples from 376 patients in phase II studies and 434 patients in phase III studies.

[2] = Pooled metabolic analysis, 6-week studies: body weight; settings: 6-week placebo controlled trials, BX total doses, RISP 6 mg, OLZ 15 mg, HAL 10 mg; for Weight, Mean (SD) change from baseline: endpoint
Excerpt: (§1) OBJECTIVE: To examine the metabolic effects of bifeprunox in patients with acute and stable schizophrenia.
(§2) METHODS: Metabolic data was compiled from one 6-month and four 6-week studies (i.e., a treatment period) of bifeprunox in patients with stable and acute schizophrenia, respectively. In the 6-month study, patients received bifeprunox (n=331) or placebo (PBO) (n=166). […] Metabolic evaluations included body weight, body mass index (BMI), plasma glucose and lipid profiles. Fasting glucose and lipid values were assessed in one 6-week study and in the 6-month study. Triglyceride:HDL ratio (TG:HDL) was calculated as a marker of insulin resistance. No statistical analyses were performed; only descriptive statistics are presented.

[3] = Pooled metabolic analysis, 6-week studies: lipid profile; settings: endpoint, 6-week studies, BX total, OLZ 15 mg
Excerpt: as §1, §2

[4] = Pharmacokinetic interaction of lithium and bifeprunox in healthy male subjects; assay type: in vivo, human
Experimental: Because bifeprunox may be used in combination with the mood-stabilizing drug lithium for the treatment of patients with psychoses and mood disorders, the effect of multiple doses of bifeprunox on the pharmacokinetic (PK) profile of lithium was evaluated. Lithium has a narrow therapeutic index that can complicate therapy, and serum levels greater than 1.5 mmol/L carry a greater risk of lithium toxicity than do lower levels.
METHODS: This was a single center, double-blind, randomized, placebo-controlled, parallel-design study in 48 healthy male subjects. All subjects were to receive open-label lithium (450 mg) twice daily on days 1 through 8 and, provided serum levels were stable on days 5 through 7, again on days 9 through 20. Subjects whose serum levels were stable on days 5 through 7 were included in those randomized to receive, in addition to lithium 450 mg twice daily, either placebo or a rising dose of bifeprunox (0.025-40 mg) once daily on days 9 through 17, and placebo or bifeprunox 40 mg on days 18 through 21. Only a single morning dose of lithium 450 mg was administered on day 21. Lithium, steady-state Cmax, AUC over the dosing interval (0-t), and renal clearance (CL-R) values were compared between the bifeprunox and placebo groups using ANCOVA with baseline values of lithium measured on day 8 as covariate.

[5] = non-fasting, RISP 6 mg, HAL 10 mg
[6] = lithium 450 mg twice daily with bifeprunox up to 40 mg once daily, healthy male subjects

Compound	PK of narrow therapeutic index compound on co-administration with bifeprunox [1]	≧7% weight increase, (%) ([2]; baseline BMI 18.5-25 kg/m^2)	≧7% weight decrease, (%) ([2]; baseline BMI All)	≧7% weight increase, (%) ([2]; baseline BMI All)	Weight, Mean (SD) change from baseline ([2]; baseline BMI 18.5-25 kg/m^2)	Weight, Mean (SD) change from baseline ([2]; baseline BMI <18.5 kg/m^2)	Weight, Mean (SD) change from baseline ([2]; baseline BMI >25-30 kg/m^2)	Weight, Mean (SD) change from baseline ([2]; baseline BMI >30 kg/m^2)	Weight, Mean (SD) change from baseline ([2]; baseline BMI All)	Total cholesterol, Mean change (SD) [3, 5]	Triglycerides, Mean change (SD) [3, 5]	≧7% weight increase, (%) ([2]; baseline BMI <18.5 kg/m^2)	≧7% weight increase, (%) ([2]; baseline BMI >25-30 kg/m^2)	≧7% weight increase, (%) ([2]; baseline BMI >30 kg/m^2)	other results
CC(=O)CC(c1ccccc1)c1c(O)c2ccccc2oc1=O (centres unmarked) [warfarin, reference compound]	did not affect the PK of these compounds to any relevant extent	–	–	–	–	–	–	–	–	–	–	–	–	–	–
O=C(CCCN1CCC(O)(c2ccc(Cl)cc2)CC1)c1ccc(F)cc1 [HAL]	–	7.1%	2.0%	4.0%	−0.0 (2.2) kg	1.4 (1.3) kg	−1.1 (1.8) kg	0.4 (2.1) kg	−0.1 (2.1) kg	0.1 (0.7) mg/dL	−2.7 (0.6) mg/dL	–	–	–	≧7% weight decrease, (%) ([2]; baseline BMI 18.5-25 kg/m^2): 3.6%
Cc1nc2n(c(=O)c1CCN1CCC(c3noc4cc(F)ccc34)CC1)CCCC2 [RISP]	–	7.3%	0.4%	9.8%	1.5 (2.2) kg	0.9 (2.3) kg	2.1 (3.2) kg	1.6 (4.2) kg	1.7 (3.3) kg	−2.6 (0.8) mg/dL	−7.4 (1.4) mg/dL	20.0%	13.3%	8.5%	≧7% weight decrease, (%) ([2]; baseline BMI >30 kg/m^2): 1.2%
Cc1cc2c(s1)Nc1ccccc1N=C2N1CCN(C)CC1 [OLZ]	–	22.7%	–	–	2.1 (2.7) kg	1.0 (1.9) kg	2.3 (2.5) kg	3.3 (4.0) kg	2.4 (3.1) kg	−0.7 (1.0) mg/dL	24.6 (1.3) mg/dL	18.8%	13.2%	14.6%	Fasting HDL, Mean change (SD) ([3]; fasting): −1.4 (9.2) mg/dL; Fasting HDL, Percentage mean change ([3]; fasting): −2.9%; Fasting LDL, Mean change (SD) ([3]; fasting): −0.3 (28.6) mg/dL; Fasting LDL, Percentage mean change ([3]; fasting): −0.3%; Total cholesterol, Mean change (SD) ([3]; fasting): −4.0 (37.3) mg/dL; Total cholesterol, Percentage mean change ([3]; fasting): −2.0%; Triglycerides, Mean change (SD) ([3]; fasting): −9.2 (90.4) mg/dL; Triglycerides, Percentage mean change ([3]; fasting): −5.3%
[Li] [lithium]	did not affect the PK of these compounds to any relevant extent	–	–	–	–	–	–	–	–	–	–	–	–	–	effect of co-administration of multiple doses of bifeprunox on lithium steady-state pharmacokinetics ([4]; human, in vivo): no clinically relevant effect; lithium renal clearance CL-R, treatment ratio (bifeprunox vs placebo group, geometric least square means) [4, 6]: 0.94; lithium steady-state AUC(0-t), treatment ratio (bifeprunox vs placebo group, geometric least square means) [4, 6]: 1.13; lithium steady-state Cmax, treatment ratio (bifeprunox vs placebo group, geometric least square means) [4, 6]: 1.11
